Data as given in patent publication US8076487B2, “Pyridone derivative and herbicide” (Kumiai Chemical Industry Co., Ltd., priority 2006, dated 2011).

How the values were obtained:
Type in all cases: in vivo
[1] = tested on: Japanese bulrush (Scirpus juncoides Roxb.); assay: Test Example 1: herbicidal effect by soil application to paddy field; conditions: paddy field soil application; active ingredient 1,000 g per 1 hectare; wettable powder added dropwise to water surface the day after sowing; examined on the 21st day after application
Procedure, shortened: (§1)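 Plants were sown in flooded (3 cm) paddy soil and evaluated for herbicidal effect 21 days after soil application in a greenhouse.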

[2] = tested on: heartshape false pickerelweed (Monochoria vaginalis (Burm.f.) C.Presl); assay: as above; conditions: paddy field soil application; active ingredient 1,000 g per 1 hectare; wettable powder added dropwise to water surface the day after sowing; examined on the 21st day after application
Procedure, shortened: as §1

[3] = tested on: early watergrass (Echinochloa oryzicola Vasing); assay: as above; conditions: paddy field soil application; active ingredient 1,000 g per 1 hectare; wettable powder added dropwise to water surface the day after sowing; examined on the 21st day after application
Procedure, shortened: as §1

[4] = tested on: velvetleaf (Abutilon theophrasti medicus); assay: Test Example 3: herbicidal effect by application to upland field (foliage treatment); conditions: foliage treatment, 1,000 g active ingredient per 1 hectare, 14th day after application, greenhouse
Procedure, shortened: (§2)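 Seeds went into pots of field soil and grew under glass for two weeks. The whole plant was then sprayed from above with diluted wettable powder delivering 1,000 g/ha of active ingredient. Plants stayed in the greenhouse, and injury was graded against a standard 14 days after spraying.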

[5] = tested on: slender amaranth (Amaranthus viridis L.); assay: as above; conditions: foliage treatment, 1,000 g active ingredient per 1 hectare, 14th day after application, greenhouse
Procedure, shortened: as §2

[6] = tested on: barnyardgrass (Echinochloa crus-galli (L.) P. Beauv. var. crus-galli); assay: as above; conditions: foliage treatment, 1,000 g active ingredient per 1 hectare, 14th day after application, greenhouse
Procedure, shortened: as §2

[7] = tested on: green foxtail (Setaria viridis (L.) P. Beauv.); assay: as above; conditions: foliage treatment, 1,000 g active ingredient per 1 hectare, 14th day after application, greenhouse
Procedure, shortened: as §2

[8] = tested on: velvetleaf (Abutilon theophrasti medicus); assay: Test Example 2: herbicidal effect by soil application to upland field; conditions: soil surface spray, upland field soil, 1,000 g active ingredient per hectare, 21st day after application
Procedure, shortened: (§3)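 Pots of field soil, seeds sown and soil-covered; wettable powder diluted in water sprayed on soil at 1,000 g a.i./ha (1,000 L/ha). Greenhouse-grown; herbicidal effect rated per standard at 21 days post-application.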

[9] = tested on: slender amaranth (Amaranthus viridis L.); assay: as above; conditions: soil surface spray, upland field soil, 1,000 g active ingredient per hectare, 21st day after application
Procedure, shortened: as §3

[10] = tested on: barnyardgrass (Echinochloa crus-galli (L.) P. Beauv. var. crus-galli); assay: as above; conditions: soil surface spray, upland field soil, 1,000 g active ingredient per hectare, 21st day after application
Procedure, shortened: as §3

[11] = tested on: green foxtail (Setaria viridis (L.) P. Beauv.); assay: as above; conditions: soil surface spray, upland field soil, 1,000 g active ingredient per hectare, 21st day after application
Procedure, shortened: as §3

SMILES	herbicidal effect, Scirpus juncoides Roxb. [1]	herbicidal effect, Monochoria vaginalis (Burm. f.) C. Presl [2]	herbicidal effect, Echinochloa oryzicola Vasing [3]	herbicidal effect, Velvetleaf [4]	herbicidal effect, Slender Amaranth [5]	herbicidal effect, Barnyardgrass [6]	herbicidal effect, Green Foxtail [7]	herbicidal effect (index), Velvetleaf [8]	herbicidal effect (index), Slender Amaranth [9]	herbicidal effect (index), Barnyardgrass [10]	herbicidal effect (index), Green Foxtail [11]
Cc1cccc(-n2cccc(C(=O)C3=C(O)CCCC3=O)c2=O)c1 [I-238]	5 (90% or more of herbicidal effect and crop phytotoxicity)	5 (90% or more of herbicidal effect and crop phytotoxicity)	5 (90% or more of herbicidal effect and crop phytotoxicity)	5 (90% or more of herbicidal effect and crop phytotoxicity)	5 (90% or more of herbicidal effect and crop phytotoxicity)	5 (90% or more of herbicidal effect and crop phytotoxicity)	4 (70 to less than 90% of herbicidal effect and crop phytotoxicity)	5 (90% or more of herbicidal effect and crop phytotoxicity)	5 (90% or more of herbicidal effect and crop phytotoxicity)	5 (90% or more of herbicidal effect and crop phytotoxicity)	4 (70 to less than 90% of herbicidal effect and crop phytotoxicity)
N#Cc1ccc(C(=O)C2=C(O)CCCC2=O)c(=O)n1-c1ccccc1 [I-243]	5 (90% or more of herbicidal effect and crop phytotoxicity)	5 (90% or more of herbicidal effect and crop phytotoxicity)	5 (90% or more of herbicidal effect and crop phytotoxicity)	5 (90% or more of herbicidal effect and crop phytotoxicity)	5 (90% or more of herbicidal effect and crop phytotoxicity)	5 (90% or more of herbicidal effect and crop phytotoxicity)	5 (90% or more of herbicidal effect and crop phytotoxicity)	5 (90% or more of herbicidal effect and crop phytotoxicity)	5 (90% or more of herbicidal effect and crop phytotoxicity)	5 (90% or more of herbicidal effect and crop phytotoxicity)	5 (90% or more of herbicidal effect and crop phytotoxicity)
CC1CC(C)(C)C(O)=C(C(=O)c2ccc(C(F)(F)F)n(C)c2=O)C1=O (stereo not drawn) [II-5]	5 (90% or more of herbicidal effect and crop phytotoxicity)	5 (90% or more of herbicidal effect and crop phytotoxicity)	5 (90% or more of herbicidal effect and crop phytotoxicity)	5 (90% or more of herbicidal effect and crop phytotoxicity)	4 (70 to less than 90% of herbicidal effect and crop phytotoxicity)	4 (70 to less than 90% of herbicidal effect and crop phytotoxicity)	3 (50 to less than 70% of herbicidal effect and crop phytotoxicity)	5 (90% or more of herbicidal effect and crop phytotoxicity)	5 (90% or more of herbicidal effect and crop phytotoxicity)	5 (90% or more of herbicidal effect and crop phytotoxicity)	5 (90% or more of herbicidal effect and crop phytotoxicity)
C=CCn1c(C(F)(F)F)ccc(C(=O)C2=C(OC)CCCC2=O)c1=O [II-25]	5 (90% or more of herbicidal effect and crop phytotoxicity)	5 (90% or more of herbicidal effect and crop phytotoxicity)	5 (90% or more of herbicidal effect and crop phytotoxicity)	5 (90% or more of herbicidal effect and crop phytotoxicity)	5 (90% or more of herbicidal effect and crop phytotoxicity)	5 (90% or more of herbicidal effect and crop phytotoxicity)	5 (90% or more of herbicidal effect and crop phytotoxicity)	5 (90% or more of herbicidal effect and crop phytotoxicity)	5 (90% or more of herbicidal effect and crop phytotoxicity)	5 (90% or more of herbicidal effect and crop phytotoxicity)	5 (90% or more of herbicidal effect and crop phytotoxicity)
COCCn1c(C(F)(F)F)ccc(C(=O)C2=C(O)C(C)(C)CCC2=O)c1=O [II-29]	5 (90% or more of herbicidal effect and crop phytotoxicity)	5 (90% or more of herbicidal effect and crop phytotoxicity)	5 (90% or more of herbicidal effect and crop phytotoxicity)	5 (90% or more of herbicidal effect and crop phytotoxicity)	5 (90% or more of herbicidal effect and crop phytotoxicity)	5 (90% or more of herbicidal effect and crop phytotoxicity)	5 (90% or more of herbicidal effect and crop phytotoxicity)	5 (90% or more of herbicidal effect and crop phytotoxicity)	5 (90% or more of herbicidal effect and crop phytotoxicity)	5 (90% or more of herbicidal effect and crop phytotoxicity)	5 (90% or more of herbicidal effect and crop phytotoxicity)
COCCOCCn1c(C(F)(F)F)ccc(C(=O)C2=C(O)C(C)(C)CCC2=O)c1=O [II-31]	5 (90% or more of herbicidal effect and crop phytotoxicity)	5 (90% or more of herbicidal effect and crop phytotoxicity)	5 (90% or more of herbicidal effect and crop phytotoxicity)	5 (90% or more of herbicidal effect and crop phytotoxicity)	5 (90% or more of herbicidal effect and crop phytotoxicity)	5 (90% or more of herbicidal effect and crop phytotoxicity)	5 (90% or more of herbicidal effect and crop phytotoxicity)	5 (90% or more of herbicidal effect and crop phytotoxicity)	5 (90% or more of herbicidal effect and crop phytotoxicity)	5 (90% or more of herbicidal effect and crop phytotoxicity)	5 (90% or more of herbicidal effect and crop phytotoxicity)
